target: T1, Human PDE10 (Homo sapiens, UniProt Q9Y233); assay: Human PDE10 inhibitory effect (IMAP TR-FRET enzyme inhibition assay); assay type: biochemical; details: PDE10 inhibitory activity, cAMP substrate
T1 construct: purchased BPA Bioscience (so in the source)
Description: (Evaluation of Enzyme Inhibitory Activity: Human PDE10 Inhibitory Effect)
IMAP TR-FRET Phosphodiersterase Evaluation Assay Kit (Molecular Device) was used for the measurement. Ten μL of a diluted test compound having each concentration and 5 μL of the enzyme PDE10 (BPA Bioscience) that had been diluted to 2 ng/mL with 1×IMAP Reaction Buffer (prepared with 5× included with the kit, 10 mM Tris-HCl, pH=7.2, 10 mM MgCl2, 0.05% NaN3, and 0.1% BSA) containing 0.1% BSA were added to a 384-well plate (Corning). The obtained mixture was then pre-incubated at room temperature for 5 minutes. Thereafter, 5 μL of cAMP substrate solution which was included with the kit and diluted to 400 nM with 1×IMAP Reaction Buffer containing 0.1% BSA, was added to the reaction solution, and the obtained mixture was reacted at room temperature for 60 minutes. Thereafter, 60 μL of an IMAP TR-FRET Binding solution included with the kit was further added to the reaction solution, and the obtained mixture was then left for 3 hours or more. Subsequently, using ARVO SX (PerkinElmer), the fluorescent intensity of Terbium (Emission=490 nm) and TR-FRET (Emission=520 nm) in the reaction solution were measured at an excitation wavelength of 340 nm, so as to calculate the amount of the generated 5′-AMP. The count of a well to which a solvent had been added instead of the test compound was set at 0%, and the count of a well to which the enzyme PDE10 had not been added was set at 100%. Thus, the inhibitory activity of each test compound was calculated.
The PDE10 inhibitory activity of the test compound was indicated with an IC50 value. […] The test compounds are shown in Table 3 (Table 3-1 and Table 3-2).

T1 sequence (Q9Y233 whole entry): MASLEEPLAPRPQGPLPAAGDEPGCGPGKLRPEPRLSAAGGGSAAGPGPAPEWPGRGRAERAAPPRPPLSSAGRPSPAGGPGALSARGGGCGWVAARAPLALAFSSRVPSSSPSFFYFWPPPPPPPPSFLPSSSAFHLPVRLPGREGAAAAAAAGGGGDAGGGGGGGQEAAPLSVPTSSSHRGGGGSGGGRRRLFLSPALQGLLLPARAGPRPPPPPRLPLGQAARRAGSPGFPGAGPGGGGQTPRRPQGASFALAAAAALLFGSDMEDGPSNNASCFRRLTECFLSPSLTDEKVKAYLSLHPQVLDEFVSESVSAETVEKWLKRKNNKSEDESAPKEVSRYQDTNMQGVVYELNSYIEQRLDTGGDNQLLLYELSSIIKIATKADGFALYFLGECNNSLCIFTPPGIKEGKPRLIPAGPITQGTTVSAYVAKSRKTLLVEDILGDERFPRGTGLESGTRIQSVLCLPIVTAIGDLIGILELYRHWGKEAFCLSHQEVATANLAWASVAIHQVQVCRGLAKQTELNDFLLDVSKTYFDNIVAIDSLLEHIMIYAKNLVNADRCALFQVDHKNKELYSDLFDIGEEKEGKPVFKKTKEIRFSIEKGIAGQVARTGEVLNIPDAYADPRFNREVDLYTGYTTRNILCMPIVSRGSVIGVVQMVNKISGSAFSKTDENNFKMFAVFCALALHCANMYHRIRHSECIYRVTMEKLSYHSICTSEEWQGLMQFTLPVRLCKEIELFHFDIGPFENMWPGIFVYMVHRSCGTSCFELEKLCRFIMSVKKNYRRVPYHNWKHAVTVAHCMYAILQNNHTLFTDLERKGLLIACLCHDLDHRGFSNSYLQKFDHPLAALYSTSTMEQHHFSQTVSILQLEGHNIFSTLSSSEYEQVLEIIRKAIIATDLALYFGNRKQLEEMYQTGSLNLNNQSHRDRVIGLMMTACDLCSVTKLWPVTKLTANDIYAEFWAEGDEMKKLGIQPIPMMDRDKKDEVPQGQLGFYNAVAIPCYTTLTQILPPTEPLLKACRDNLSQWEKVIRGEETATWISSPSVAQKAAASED

| Compound | IC50 [nM] |
| --- | --- |
| Cn1ncc(-c2nc(C(F)F)c(Cl)s2)c1C(=O)Nc1ccn2nc(-c3ccccc3)nc2c1 [Example 3.20, 4-(5-chloro-4-(difluoromethyl)thiazol-2-yl)-1-methyl-N-(2-phenyl-[1,2,4]triazolo[1,5-a]pyridin-7-yl)-1H-pyrazole-5-carboxamide] | < 5 |
| C[C@H]1CCCN1c1nc2cc(NC(=O)c3c(-c4nc(C(F)F)c(Cl)s4)cnn3C)ccn2n1 [Example 4.2, (S)-4-(5-chloro-4-(difluoromethyl)thiazol-2-yl)-1-methyl-N-(2-(2-methylpyrrolidin-1-yl)-[1,2,4]triazolo[1,5-a]pyridin-7-yl)-1H-pyrazole-5-carboxamide] | < 5 |
| COc1ccccc1-c1nc2cc(NC(=O)c3c(-c4nc(C(F)F)c(Cl)s4)cnn3C)cc(Cl)n2n1 [Example 3.21, N-(5-chloro-2-(2-methoxyphenyl)-[1,2,4]triazolo[1,5-a]pyridin-7-yl)-4-(5-chloro-4-(difluoromethyl)thiazol-2-yl)-1-methy 1-1H-pyrazole-5-carboxamide] | 5 to 100 |
| Cc1ccnc(-c2cnn(C)c2C(=O)Nc2ccn3nc(N4CCCC4)nc3c2)c1 [Example 4.30, 1-methyl-4-(4-methylpyridin-2-yl)-N-(2-(pyrrolidin-1-yl)-[1,2,4]triazolo[1,5-a]pyridin-7-yl)-1H-pyrazole-5-carboxamide] | < 5 |
| Cn1ncc(-c2nc(C(F)F)cs2)c1C(=O)NC1CCn2cc(-c3cccc(F)c3)nc2C1 (stereo not drawn) [Example 2.20, 4-(4-(difluoromethyl)thiazol-2-yl)-N-(2-(3-fluorophenyl)-5,6,7,8-tetrahydroimidazo[1,2-a]pyridin-7-yl)-1-methyl-1H-pyrazole-5-carboxamide] | < 5 |
| Cc1ccnc(-c2cnn(C)c2C(=O)NC2CCn3cc(-c4ccccc4)nc3C2)n1 (stereo not drawn) [Example 2.16, 1-methyl-4-(4-methylpyrimidin-2-yl)-N-(2-phenyl-5,6,7,8-tetrahydroimidazo[1,2-a]pyridin-7-yl)-1H-pyrazole-5-carboxamide] | 5 to 100 |
| Cc1cnc(-c2cnn(C)c2C(=O)Nc2cc3nc(-c4ccccc4)nn3cc2F)cn1 [Example 3.2, N-(6-fluoro-2-phenyl-[1,2,4]triazolo[1,5-a]pyridin-7-yl)-1-methyl-4-(5-methylpyrazin-2-yl)-1H-pyrazole-5-carboxamide] | < 5 |
| Cc1nnc(-c2cnn(C)c2C(=O)NC2CCn3cc(-c4cc(F)ccc4F)nc3C2)s1 (stereo not drawn) [Example 2.18, N-(2-(2,5-difluorophenyl)-5,6,7,8-tetrahydroimidazo[1,2-a]pyridin-7-yl)-1-methyl-4-(5-methyl-1,3,4-thiadiazol-2-yl)-1H-pyrazole-5-carboxamide] | 5 to 100 |
| Cc1cncc(-c2cnn(C)c2C(=O)NC2CCn3cc(-c4cccc(F)c4)nc3C2)n1 (stereo not drawn) [Example 2.24, N-(2-(3-fluorophenyl)-5,6,7,8-tetrahydroimidazo[1,2-a]pyridin-7-yl)-1-methyl-4-(6-methylpyrazin-2-yl)-1H-pyrazole-5-carboxamide] | 5 to 100 |
| Cn1ncc(-c2nccs2)c1C(=O)NC1CCn2cc(-c3ccccc3)nc2C1 (stereo not drawn) [Example 2.26, 1-methyl-N-(2-phenyl-5,6,7,8-tetrahydroimidazo[1,2-a]pyridin-7-yl)-4-(thiazol-2-yl)-1H-pyrazole-5-carboxamide] | 5 to 100 |
| Cn1ncc(-c2nc(C(F)F)c(Cl)s2)c1C(=O)NC1CCn2nc(-c3ccc(F)cc3)nc2C1 (stereo not drawn) [Example 5.3, 4-(5-chloro-4-(difluoromethyl)thiazol-2-yl)-N-(2-(4-fluorophenyl)-5,6,7,8-tetrahydro-[1,2,4]triazolo[1,5-a]pyridin-7-yl)-1-methyl-1H-pyrazole-5-carboxamide] | < 5 |
| Cn1ncc(-c2cc(F)ccn2)c1C(=O)Nc1cc2nc(-c3ccccc3)nn2cc1F [Example 3.4, N-(6-fluoro-2-phenyl-[1,2,4]triazolo[1,5-a]pyridin-7-yl)-4-(4-fluoropyridin-2-yl)-1-methyl-1H-pyrazole-5-carboxamide] | < 5 |

Second part, the compound after the results:

| IC50 [nM] | Compound |
| --- | --- |
| 5 to 100 | COc1ccnc(-c2cnn(C)c2C(=O)NC2CCn3nc(-c4ccccc4)nc3C2)c1 (stereo not drawn) [Example 5.25, 4-(4-methoxypyridin-2-yl)-1-methyl-N-(2-phenyl-5,6,7,8-tetrahydro-[1,2,4]triazolo[1,5-a]pyridin-7-yl)-1H-pyrazole-5-carboxamide] |
| 5 to 100 | Cc1cnc(C)c(-c2cnn(C)c2C(=O)NC2CCn3nc(-c4ccccc4)nc3C2)n1 (stereo not drawn) [Example 5.14, 4-(3,6-dimethylpyrazin-2-yl)-1-methyl-N-(2-phenyl-5,6,7,8-tetrahydro-[1,2,4]triazolo[1,5-a]pyridin-7-yl)-1H-pyrazole-5-carboxamide] |
| 5 to 100 | Cc1nc(-c2cnn(C)c2C(=O)NC2CCn3nc(-c4ccc(F)cc4)nc3C2)c(C)s1 (stereo not drawn) [Example 5.28, 4-(2,5-dimethylthiazol-4-yl)-N-(2-(4-fluorophenyl)-5,6,7,8-tetrahydro-[1,2,4]triazolo[1,5-a]pyridin-7-yl)-1-methyl-1H-pyrazole-5-carboxamide] |
| 5 to 100 | Cn1ncc(-c2cccc(C(F)(F)F)n2)c1C(=O)NC1CCn2nc(-c3ccccc3)nc2C1 (stereo not drawn) [Example 5.21, 1-methyl-N-(2-phenyl-5,6,7,8-tetrahydro-[1,2,4]triazolo[1,5-a]pyridin-7-yl)-4-(6-(trifluoromethyl)pyridin-2-yl)-1H-pyrazole-5-carboxamide] |
| 5 to 100 | Cn1ncc(-c2nc(C(F)F)c(Cl)s2)c1C(=O)NC1CCn2nc(-c3cccc(F)c3)nc2C1 (stereo not drawn) [Example 5.37, 4-(5-chloro-4-(difluoromethyl)thiazol-2-yl)-N-(2-(3-fluorophenyl)-5,6,7,8-tetrahydro-[1,2,4]triazolo[1,5-a]pyridin-7-yl)-1-methyl-1H-pyrazole-5-carboxamide] |
| 5 to 100 | COC[C@H]1CCCN1c1nc2n(n1)CCC(NC(=O)c1c(-c3nc(C(F)F)cs3)cnn1C)C2 (stereo partly drawn) [Example 5.16, 4-(4-(difluoromethyl)thiazol-2-yl)-N-(2-((R)-2-(methoxymethyl)pyrrolidin-1-yl)-5,6,7,8-tetrahydro-[1,2,4]triazolo[1,5-a]pyridin-7-yl)-1-methyl-1H-pyrazole-5-carboxamide] |
| 5 to 100 | Cn1ncc(-c2ccc(F)cn2)c1C(=O)NC1CCn2nc(-c3ccccc3)nc2C1 (stereo not drawn) [Example 5.24, 4-(5-fluoropyridin-2-yl)-1-methyl-N-(2-phenyl-5,6,7,8-tetrahydro-[1,2,4]triazolo[1,5-a]pyridin-7-yl)-1H-pyrazole-5-carboxamide] |
| 5 to 100 | Cc1cccnc1-c1cnn(C)c1C(=O)NC1CCn2nc(-c3ccccc3)nc2C1 (stereo not drawn) [Example 5.22, 1-methyl-4-(3-methylpyridin-2-yl)-N-(2-phenyl-5,6,7,8-tetrahydro-[1,2,4]triazolo[1,5-a]pyridin-7-yl)-1H-pyrazole-5-carboxamide] |
| 5 to 100 | Cc1nc(-c2cnn(C)c2C(=O)NC2CCn3nc(-c4ccccc4)nc3C2)c(Br)s1 (stereo not drawn) [Example 5.13, 4-(5-bromo-2-methylthiazol-4-yl)-1-methyl-N-(2-phenyl-5,6,7,8-tetrahydro-[1,2,4]triazolo[1,5-a]pyridin-7-yl)-1H-pyrazole-5-carboxamide] |
| 5 to 100 | Cc1csc(-c2cnn(C)c2C(=O)NC2CCn3nc(-c4ccccc4)nc3C2)n1 (stereo not drawn) [Example 5.18, 1-methyl-4-(4-methylthiazol-2-yl)-N-(2-phenyl-5,6,7,8-tetrahydro-[1,2,4]triazolo[1,5-a]pyridin-7-yl)-1H-pyrazole-5-carboxamide] |
| 5 to 100 | Cc1nc(-c2cnn(C)c2C(=O)NC2CCn3nc(-c4ccccc4)nc3C2)sc1C1CC1 (stereo not drawn) [Example 5.38, 4-(5-cyclopropyl-4-methylthiazol-2-yl)-1-methyl-N-(2-phenyl-5,6,7,8-tetrahydro-[1,2,4]triazolo[1,5-a]pyridin-7-yl)-1H-pyrazole-5-carboxamide] |
| < 5 | Cc1nc(-c2cnn(C)c2C(=O)NC2CCn3nc(-c4ccccc4)nc3C2)sc1C (stereo not drawn) [Example 5.4, 4-(4,5-dimethylthiazol-2-yl)-1-methyl-N-(2-phenyl-5,6,7,8-tetrahydro-[1,2,4]triazolo[1,5-a]pyridin-7-yl)-1H-pyrazole-5-carboxamide] |
| 5 to 100 | Cn1ncc(-c2cc(F)ccn2)c1C(=O)NC1CCn2nc(-c3ccccc3)nc2C1 (stereo not drawn) [Example 5.23, 4-(4-fluoropyridin-2-yl)-1-methyl-N-(2-phenyl-5,6,7,8-tetrahydro-[1,2,4]triazolo[1,5-a]pyridin-7-yl)-1H-pyrazole-5-carboxamide] |
| 5 to 100 | CC(=O)c1sc(C)nc1-c1cnn(C)c1C(=O)NC1CCn2nc(-c3ccccc3)nc2C1 (stereo not drawn) [Example 5.30, 4-(5-acetyl-2-methylthiazol-4-yl)-1-methyl-N-(2-phenyl-5,6,7,8-tetrahydro-[1,2,4]triazolo[1,5-a]pyridin-7-yl)-1H-pyrazole-5-carboxamide] |
| 5 to 100 | Cn1ncc(-c2nc(C(F)F)cs2)c1C(=O)NC1CCn2nc(-c3ccccc3F)nc2C1 (stereo not drawn) [Example 5.32, 4-(4-(difluoromethyl)thiazol-2-yl)-N-(2-(2-fluorophenyl)-5,6,7,8-tetrahydro-[1,2,4]triazolo[1,5-a]pyridin-7-yl)-1-methyl-1H-pyrazole-5-carboxamide] |

Source: patent US8980888B2, “Pyrazole derivative” (Mochida Pharmaceutical Co., Ltd., priority 2013, dated 2015)
